Reference: ChEMBL document CHEMBL4725367, “Novel anticancer Hsp90 inhibitor disubstituted pyrazolyl 2-aminopyrimidine compound 7t induces cell cycle arrest and apoptosis via mitochondrial pathway in MCF-7 cells” (Bioorg Med Chem Lett, 2020)
Activity calls are given as the source filed them. No cut-off for these calls is given here.

How the values were obtained:
[1] = target: T1, Heat shock protein HSP90 (Homo sapiens) (UniProt P07900+P08238); experiment: Inhibition of HSP90 in human MCF7 cells assessed as cell cycle arrest by measuring accumulation at G2/M phase at 1 uM measured after 24 hrs by RNaseA/propidium iodide staining based flow cytometric analysis (reference value: 25.08 %); design: scale not given: the % may be the effect or the level left
[2] = target: T1, Heat shock protein HSP90 (Homo sapiens); experiment: Inhibition of HSP90 in human MCF7 cells assessed as induction of nuclear morphological changes by measuring nuclear fragmentation at 1 uM by DAPI staining based fluorescence microscopy analysis; assay type: cell-based
[3] = target: T1, Heat shock protein HSP90 (Homo sapiens); experiment: Inhibition of HSP90 in human MCF7 cells assessed as induction of morphological changes by measuring membrane blebbing at 1 uM by acridine orange/ethidium bromide staining based fluorescence microscopy analysis; assay type: cell-based
[4] = target: T1, Heat shock protein HSP90 (Homo sapiens); experiment: Inhibition of HSP90 in human MCF7 cells assessed as increase in ROS generation by measuring fluorescence intensity at 10 uM after 24 hrs by DCFDA staining based flow cytometry; assay type: cell-based
[5] = target: T1, Heat shock protein HSP90 (Homo sapiens); experiment: Inhibition of HSP90 in human MCF7 cells assessed as induction of apoptosis by measuring early apototic cells at 1 uM measured after 24 hrs by annexinV-FITC/propidium iodide staining based flow cytometry (reference value: 1.31 %); assay type: cell-based; design: scale not given: the % may be the effect or the level left
[6] = target: T1, Heat shock protein HSP90 (Homo sapiens); experiment: Inhibition of HSP90 in human MCF7 cells assessed as induction of morphological changes by measuring nuclei condensation at 1 uM by acridine orange/ethidium bromide staining based fluorescence microscopy analysis; assay type: cell-based
[7] = target: T1, Heat shock protein HSP90 (Homo sapiens); experiment: Inhibition of HSP90 in human MCF7 cells assessed as induction of apoptosis by measuring total apoptotic and dead cell population at 1 uM measured after 24 hrs by annexinV-FITC/propidium iodide staining based flow cytometry (reference value: 9.23 %); design: scale not given: the % may be the effect or the level left
[8] = target: T1, Heat shock protein HSP90 (Homo sapiens); experiment: Inhibition of HSP90 in human MCF7 cells assessed as induction of apoptosis by measuring late apototic cells at 1 uM measured after 24 hrs by annexinV-FITC/propidium iodide staining based flow cytometry (reference value: 7.91 %); assay type: cell-based; design: scale not given: the % may be the effect or the level left
[9] = target: T1, Heat shock protein HSP90 (Homo sapiens); experiment: Inhibition of HSP90 in human MCF7 cells assessed as cell cycle arrest by measuring accumulation at Sub-G1 phase at 1 uM measured after 24 hrs by RNaseA/propidium iodide staining based flow cytometric analysis (reference value: 3.75 %); design: scale not given: the % may be the effect or the level left
[10] = target: T1, Heat shock protein HSP90 (Homo sapiens); experiment: Inhibition of HSP90 in human MCF7 cells assessed as induction of nuclear morphological changes by measuring horse shoe shaped nuclei formation at 1 uM by DAPI staining based fluorescence microscopy analysis; assay type: cell-based
[11] = target: T1, Heat shock protein HSP90 (Homo sapiens); experiment: Inhibition of HSP90 in human MCF7 cells assessed as induction of mitochondrial membrane potential loss by measuring cell population with mitochondrial membrane potential collapse at 1 uM after 24 hrs by JC1 staining-based flow cytometry analysis (reference value: 6.53 %); design: scale not given: the % may be the effect or the level left
[12] = target: T1, Heat shock protein HSP90 (Homo sapiens); experiment: Inhibition of HSP90 in human MCF7 cells assessed as induction of apoptosis by measuring live cells at 1 uM measured after 24 hrs by annexinV-FITC/propidium iodide staining based flow cytometry (reference value: 90.77 %); assay type: cell-based; design: scale not given: the % may be the effect or the level left
[13] = target: T1, Heat shock protein HSP90 (Homo sapiens); experiment: Inhibition of HSP90 in human MCF7 cells assessed as induction of morphological changes by measuring apoptotic body formation at 1 uM by acridine orange/ethidium bromide staining based fluorescence microscopy analysis; assay type: cell-based
[14] = target: T1, Heat shock protein HSP90 (Homo sapiens); experiment: Inhibition of HSP90 in human MCF7 cells assessed as cell cycle arrest by measuring accumulation at S phase at 1 uM measured after 24 hrs by RNaseA/propidium iodide staining based flow cytometric analysis (reference value: 7.08 %); design: scale not given: the % may be the effect or the level left
[15] = target: T1, Heat shock protein HSP90 (Homo sapiens); experiment: Inhibition of HSP90 in human MCF7 cells assessed as induction of apoptosis by measuring necrotic cells at 1 uM measured after 24 hrs by annexinV-FITC/propidium iodide staining based flow cytometry (reference value: 0.01 %); assay type: cell-based; design: scale not given: the % may be the effect or the level left
[16] = target: T1, Heat shock protein HSP90 (Homo sapiens); experiment: Inhibition of HSP90 in human MCF7 cells assessed as induction of mitochondrial membrane potential loss by measuring cell population with intact mitochondrial membrane potential at 1 uM after 24 hrs by JC1 staining-based flow cytometry analysis (reference value: 92.39 %); design: scale not given: the % may be the effect or the level left
[17] = target: T1, Heat shock protein HSP90 (Homo sapiens); experiment: Inhibition of HSP90 in human MCF7 cells assessed as cell cycle arrest by measuring accumulation at G0/G1 phase at 1 uM measured after 24 hrs by RNaseA/propidium iodide staining based flow cytometric analysis (reference value: 39.10 %); design: scale not given: the % may be the effect or the level left

With `O=c1[nH]cc(F)c(=O)[nH]1` the Activity [1] was 26.4%, the Activity [2] was “Active” and the inhibition [3] was “Active”. The inhibition [4] was “Active”, the Activity [5] was 1.94% and the inhibition [6] was “Active”. The Activity [7] was 29.5%, the Activity [8] was 27.2% and the Activity [9] was 12.2%. For the same compound, the inhibition [10] was “Active”, the Activity [11] was 26.8% and the Activity [12] was 70.5%. The inhibition [13] was “Active”, the Activity [14] was 7.99% and the Activity [15] was 0.36%. For the same compound, the Activity [16] was 70.3% and the Activity [17] was 27.4%.
